Values joined by “and” are separate entries in the source; they are usually repeats but may differ in a detail not shown here. Equal values may be shown once. Square brackets hold non-standard residues; d marks the D form. Peptide text beside a SMILES is read from it.
What was measured:
[1] = biological target: T1, recombinant human cGAS enzyme (hcGAS-ΔN, residues 147–522) (Homo sapiens, UniProt Q8N884); assay: RNA-based fluorescent biosensor assay of cGAS activity (2',3'-cGAMP formation), in vitro screening; format: biochemical
T1 construct: N-terminally truncated human cGAS (hcGAS-ΔN, residues 147–522); 6xHis-SUMO (N, cleaved yes); made in house; host or cells: Escherichia coli BL21 (DE3)
T1 sequence (Q8N884 147-522, stated change not applied): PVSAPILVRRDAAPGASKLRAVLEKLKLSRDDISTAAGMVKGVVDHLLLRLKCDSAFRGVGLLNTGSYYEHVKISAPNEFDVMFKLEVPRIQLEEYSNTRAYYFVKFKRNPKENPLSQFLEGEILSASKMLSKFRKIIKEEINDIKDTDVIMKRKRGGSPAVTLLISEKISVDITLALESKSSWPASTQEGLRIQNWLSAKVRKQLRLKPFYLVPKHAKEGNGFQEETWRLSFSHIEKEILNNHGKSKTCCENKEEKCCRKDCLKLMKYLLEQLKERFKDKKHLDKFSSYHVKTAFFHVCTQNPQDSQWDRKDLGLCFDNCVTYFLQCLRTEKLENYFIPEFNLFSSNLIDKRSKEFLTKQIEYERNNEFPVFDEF
Summary of the method: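 In 40 mM Tris-HCl pH 7.5, 100 mM NaCl, 10 mM MgCl2, ISD (0.5 μM) started the reaction with hcGAS-ΔN (1.5 μM), ATP (1 mM) and GTP (1 mM). Incubation was 2 h at 37 °C, with compounds screened at 20 μM. 2',3'-cGAMP formed was quantified with an RNA-based fluorescent biosensor.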

[2] = system: cGAS-knockout Hela cells reconstituted with EGFP-hcGAS-FL; assay: Live-cell imaging of cGAS-DNA puncta; format: cell-based, human; conditions: 10 μM, 4 h
Protocol: cGAS-knockout Hela cells reconstituted with EGFP-tagged full-length human cGAS (EGFP-hcGAS-FL) were obtained by transfecting pEGFP-C2-hcGAS-FL recombinant plasmid, and were seeded into 20-mm glass-bottom cell culture dish (NEST). Cell culture media was replaced with fresh medium for 1 h, then cells were stimulated by transfection of ISD by lipofectamine 2000 (Invitrogen) after DMSO or XQ2 (10 μM) treatment for the indicated time. The cells were rinsed three times with PBS, and live-cell imaging was performed by using Nikon A1R+ confocal microscope with a 40× oil objective, Nikon A1 camera, and X-Cite 120LED laser. Images were analyzed by FIJI software.

Question: With `CC(C)C[C@@H]1NC(=O)[C@H](CCCNC(=N)N)NC(=O)[C@H](C(C)C)NC(=O)[C@@H]2CCCN2C(=O)[C@@H](Cc2ccccc2)NC(=O)[C@H](CC(C)C)NC(=O)[C@H](CCCNC(=N)N)NC(=O)[C@H](C(C)C)NC(=O)[C@H](C)NC(=O)[C@@H](Cc2ccccc2)NC1=O` [XQ2, Cyclo (LfAVRLfPVR)] (cyclo(L[dF]AVRL[dF]PVR)) as the molecule, how does the “Remaining activity (%), Fig. 1a source data” value ([1]; 20 μM, replicate values) read?
Answer: 59.4781% and 59.6712%

Question: And the remaining activity at 20 µM ([1]; 20 μM, replicate values, read-out: Remaining activity (%), Fig. 1a source data)?
Answer: 59.5%

Question: And the Inhibition % ([1]; peptides screened at 20 μM, Supplementary Table 1 / Fig. S5b, 20 µM)?
Answer: ≥ 40%

Question: And the inhibition at 20 µM ([1]; peptides screened at 20 μM, Supplementary Table 1 / Fig. S5b, read-out: Inhibition %)?
Answer: 40%

Question: What about the “puncta formation of EGFP-cGAS with ISD” value [2] of the same molecule?
Answer: markedly inhibited the puncta formation of EGFP-cGAS with ISD

Reference: article PMC10545747, “Development of cyclopeptide inhibitors of cGAS targeting protein-DNA interaction and phase separation” (Nature Communications, 2023)
